Patent publication US20080004271A1, “Inhibitors of TNFalpha, PDE4 and B-RAF, compositions thereof and methods of use therewith” (priority 2006, published 2008)

Legend:
V600E mutant B-RAF = molecular target: T1, V600E mutant B-RAF (Homo sapiens, UniProt P15056, V600E); assay: V600E Mutant B-RAF 33P Assay; assay type: biochemical
T1 construct: purchased Upstate
Procedure: Substrate (HIS-MEK1 K97M) is prepared by Celgene Corp. as described above.
Test compound is diluted in 100% DMSO (600 μM). […] Substrate mixture is prepared as 7.5 μM HIS-MEK1 K97M in assay buffer. ATP mixture is prepared as 300 μM ATP, 75 mM MgCl2, 0.05 μCi/μl ^33P ATP in assay buffer.
In a 96 well assay plate (Falcon Polylpropylene well U-bottom), the following are added to each well: 2.5 μl of test compound solution (serial dilutions), 20 μl of substrate mixture and 17.5 μl of enzyme mixture. The plate is incubated for at least 15 minutes. 10 μl of ATP mixture is added and the plate is incubated at room temperature for about 60 minutes. 80 μl of 12.5% TCA is added to each well, and the plate is incubated for at least 20 minutes. The contents of the plate is transferred to a glass fiber filter plate (Millipore) using a Packard Harvester (washing 10× with 1×PBS). 50 μl of Scintillation-20 fluid is added to each well. The plate is read using a Packard TopCount.

A375 cells = assay: Alamar Blue Viability Assay; assay type: cell-based; settings: Homo sapiens, A-375, 72 h, 3 days
Procedure: A375 cells (ATCC # CRL-1619; Passage 4˜15; doubling time is roughly 18 hours) are used. Culture medium is DMEM (high glucose, with L-glutamine)+10% FBS+Pen/Strep. Cells are passed every three days at 1:20.
200 μl of medium only is added into all wells along the edges of a 96-well flat bottom plate and 180 μl of cell suspension (containing 1,000 cells) per well is added into the plate with a Low Evaporation Lid (Costar Cat # 3595). The cells are cultured overnight. Compounds and controls are diluted according to standard compound dilution protocol described below. From 30 mM stock solution, 10 mM, 3 mM, 1 mM, and 0.3 mM solutions in 100% DMSO are prepared using the following serial dilution protocol:
The 30, 10, 3, 1 and 0.3 mM solutions are diluted 1:50 (DMSO:medium) by adding 4 μl of each to 196 μl of culture medium. This yields 600 μM, 200 μM, 60 μM, 20 μM, and 6 μM secondary stock solutions. 4 μl of DMSO are added to 196 μl medium for the DMSO control as well. 20 μl of compound dilutions, including the DMSO control locations (Row G, Columns 2-10 are DMSO control wells), are added in triplicate to the cells in the 96-well plate using a repeat pipettor (see plate layout below). This yields final concentrations of 60 μM, 20 μM, 6 μM, 2 μM, and 0.6 μM containing 0.2% DMSO in each well. The plate is gently tapped to evenly distribute compound within the well. The plate is incubated at 5% CO2 at 37° C. for 3 days.
20 μl of Alamar Blue (Biosource #DAL-1100) is added to each well. The plate is incubated in 5% CO2 incubator for 4 hours. Fluorescence is measured with excitation wavelength at 530 nm and emission wavelength at 590 nm using a Victor 2 multilabel plate reader (Perkin Elmer). Data is saved with plate format as a Text file and entered into ActivityBase (Cell-based SAR; Prolif-Alamar; MTT 5 plates unfixed fit) to calculate the percent of DMSO values for each compound set of triplicate wells and IC50 curves are plotted.

pMEK1/2 in A375 cells = assay: A375 pMEK1/2 Meso Scale Assay; assay type: cell-based; settings: Homo sapiens, A-375, 2 h; A375 pMEK1/2, about two hours incubation
Procedure: On the afternoon of Day 1, cells are plated in a 96-well flat bottom cell culture plate at about 50,000 cells/well in a volume of 100 μl. On the morning of Day 2, serial dilutions of test compound(s) are added to the plate. The plate is incubated for about two hours at 37° C., […]. The plate is blocked about five minutes before the compound incubation step is completed by adding 150 μl/well of MSD (Meso Scale Discovery) blocking solution-A (prepared with 20 ml 1× Tris wash buffer (25 ml of 10× Tris buffer+225 ml deionized water) and 600 mg MSD blocker A) and incubating with vigorous shaking at room temperature for one hour. The plate is washed 4× with 1× Tris wash buffer.
Cells are harvested and lysates prepared by removing medium, washing 1× with ice-cold PBS (calcium and magnesium free), adding 50 μl/well Complete Tris buffer and incubating with shaking at 4° C. for one hour. Lysate samples (25 μl) are added to an MSD Multi-Spot plate and incubated with vigorous shaking at room temperature for two hours. The plate is washed 1× with Tris wash buffer.
25 μl/well of […] detection antibody (Anti-pMEK1/2 antibody; SULFO-TAG labeled, light sensitive) in 3 ml of cold antibody dilution buffer (1 ml blocking solution-A, 1.82 ml 1× Tris wash buffer, 150 μl 2% MSD blocker D-M and 30 μl 10% MSD blocker D-R) is added and the plate is incubated with vigorous shaking at room temperature in the dark for one hour. The plate is washed 1× with Tris wash buffer.
150 μl/well of 1× MSD Read buffer T (with surfactant) is added to the plate and the plate is read using a MSD Sector instrument.

T1 sequence (P15056 whole entry V600E): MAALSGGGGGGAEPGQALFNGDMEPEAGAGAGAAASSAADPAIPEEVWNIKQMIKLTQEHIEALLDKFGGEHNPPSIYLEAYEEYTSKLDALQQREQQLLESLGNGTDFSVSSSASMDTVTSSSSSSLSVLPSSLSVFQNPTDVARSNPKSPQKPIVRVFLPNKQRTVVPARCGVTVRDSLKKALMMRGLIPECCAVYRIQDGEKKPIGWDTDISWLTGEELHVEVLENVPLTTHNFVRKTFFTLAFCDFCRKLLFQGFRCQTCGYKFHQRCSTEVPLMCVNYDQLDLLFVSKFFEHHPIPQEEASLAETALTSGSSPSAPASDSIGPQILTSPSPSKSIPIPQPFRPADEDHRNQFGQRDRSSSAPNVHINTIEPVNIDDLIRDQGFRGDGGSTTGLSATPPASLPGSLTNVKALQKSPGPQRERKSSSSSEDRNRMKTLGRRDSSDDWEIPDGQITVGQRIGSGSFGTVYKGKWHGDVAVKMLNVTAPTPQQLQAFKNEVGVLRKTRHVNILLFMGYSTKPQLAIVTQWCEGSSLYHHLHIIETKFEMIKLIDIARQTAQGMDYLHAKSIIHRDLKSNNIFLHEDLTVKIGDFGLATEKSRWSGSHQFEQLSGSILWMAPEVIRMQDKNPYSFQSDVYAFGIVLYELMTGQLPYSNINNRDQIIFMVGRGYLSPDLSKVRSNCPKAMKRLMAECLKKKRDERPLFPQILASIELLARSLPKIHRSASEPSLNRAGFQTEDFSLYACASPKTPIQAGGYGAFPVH

Row | melting point [°C] | IC50 (V600E mutant B-RAF) [µM] | IC50 (A375 cells) [µM] | IC50 (pMEK1/2 in A375 cells) [µM] | Structure (SMILES)
1 | – | 0.1 to 10 | 0.1 to 10 | 20 to 30 | Cc1nc(-c2ccc(Cl)c(Cl)c2)c2c(N)c(C(N)=O)sc2n1 [Example 270]
2 | – | 0.1 to 10 | 10 to 20 | 30 to 60 | CC(C)Cc1nc(-c2ccc(Cl)c(Cl)c2)c2c(N)c(C(N)=O)sc2n1 [Example 271]
3 | – | 0.1 to 10 | 10 to 20 | 0.1 to 10 | CC(C)[C@H](CO)Nc1nc(-c2ccc(Cl)c(Cl)c2)c2c(N)c(C(N)=O)sc2n1 [Example 273]
4 | – | 0.1 to 10 | 0.1 to 10 | 0.1 to 10 | Cc1ccc(-c2nc(NC(C)(C)CO)nc3sc(C(N)=O)c(N)c23)cc1O [Example 274]
5 | – | 0.1 to 10 | 10 to 20 | 10 to 20 | COc1cncc(-c2ncnc3sc(C(N)=O)c(N)c23)c1 [Example 275]
6 | – | 0.1 to 10 | 10 to 20 | > 60 | COc1cncc(-c2nc(C)nc3sc(C(N)=O)c(N)c23)c1 [Example 276]
7 | – | 0.1 to 10 | 0.1 to 10 | 0.1 to 10 | NC(=O)c1sc2ncnc(-c3cc(O)cc(Cl)c3)c2c1N [Example 280]
8 | – | 0.1 to 10 | 10 to 20 | 10 to 20 | CC(C)(CN)Nc1nc(-c2cccc(NC(=O)Nc3ccc(C(F)(F)F)cc3)c2)c2c(N)c(C(N)=O)sc2n1 [Example 282]
9 | – | 0.1 to 10 | 10 to 20 | 0.1 to 10 | NC(=O)c1sc2ncnc(-c3cccc(NC(=O)Cc4ccccc4)c3)c2c1N [Example 291]
10 | – | 0.1 to 10 | 10 to 20 | > 60 | NC(=O)c1sc2ncnc(-c3cccc(NC(=O)Nc4ccncc4)c3)c2c1N [Example 292]
11 | – | 0.1 to 10 | 0.1 to 10 | 0.1 to 10 | NC(=O)c1sc2ncnc(-c3cccc(NC(=O)Nc4cccc(C(F)(F)F)c4)c3)c2c1N [Example 295]
12 | – | 0.1 to 10 | 10 to 20 | 30 to 60 | NC(=O)c1sc2ncnc(-c3cccc(NC(=O)Nc4ccccc4C(F)(F)F)c3)c2c1N [Example 296]

The remaining lines, values behind:

Row | Structure (SMILES) | melting point [°C] | IC50 (V600E mutant B-RAF) [µM] | IC50 (A375 cells) [µM] | IC50 (pMEK1/2 in A375 cells) [µM]
13 | NC(=O)c1sc2ncnc(-c3cc4c(c(OCc5ccccc5)c3)CCO4)c2c1N [Example 5.2.140, 5-amino-4-(4-(benzyloxy)-2,3-dihydrobenzofuran-6-yl)thieno[2,3-d]pyrimidine-6-carboxamide] | 239 | – | – | –
14 | NC(=O)c1sc2nc(NCC(O)CO)nc(-c3ccc(Cl)c(Cl)c3)c2c1N (stereo not shown) [Example 220] | – | 0.1 to 10 | 20 to 30 | 10 to 20
15 | COCCCNc1nc(-c2ccc(Cl)c(Cl)c2)c2c(N)c(C(N)=O)sc2n1 [Example 222] | – | 0.1 to 10 | 20 to 30 | 20 to 30
16 | NC(=O)c1sc2nc(N[C@H]3CCNC3)nc(-c3ccc(Cl)c(Cl)c3)c2c1N [Example 224] | – | 0.1 to 10 | 10 to 20 | 0.1 to 10
17 | NC(=O)c1sc2nc(N[C@@H]3CCNC3)nc(-c3ccc(Cl)c(Cl)c3)c2c1N [Example 225] | – | 0.1 to 10 | 0.1 to 10 | 0.1 to 10
18 | NC(=O)c1sc2nc(NC3CCNCC3)nc(-c3ccc(Cl)c(Cl)c3)c2c1N [Example 226] | – | 0.1 to 10 | 0.1 to 10 | 0.1 to 10
19 | NC(=O)c1sc2nc(N[C@H]3CCOC3)nc(-c3ccc(Cl)c(Cl)c3)c2c1N [Example 228] | – | 0.1 to 10 | 10 to 20 | 0.1 to 10
20 | COc1ccc(F)c(-c2nc(NC3CC3)nc3sc(C(N)=O)c(N)c23)c1 [Example 230] | – | 0.1 to 10 | 20 to 30 | 10 to 20
21 | NC(=O)c1sc2nc(NC3CC3)nc(-c3cc(O)ccc3F)c2c1N [Example 231] | – | 0.1 to 10 | 0.1 to 10 | 0.1 to 10
22 | NC(=O)c1sc2nc(NC3CC3)nc(-c3ccc(C(F)(F)F)c(O)c3)c2c1N [Example 234] | – | 0.1 to 10 | 30 to 60 | 0.1 to 10
23 | Cc1c(O)cccc1-c1nc(NC(C)(C)CO)nc2sc(C(N)=O)c(N)c12 [Example 239] | – | 0.1 to 10 | 0.1 to 10 | 0.1 to 10
24 | C[C@@H](CO)Nc1nc(-c2cccc(O)c2F)c2c(N)c(C(N)=O)sc2n1 [Example 240] | – | 0.1 to 10 | 20 to 30 | 0.1 to 10
25 | C[C@H](CO)Nc1nc(-c2cccc(O)c2F)c2c(N)c(C(N)=O)sc2n1 [Example 241] | – | 0.1 to 10 | 10 to 20 | 0.1 to 10
26 | CC[C@@H](CO)Nc1nc(-c2cccc(O)c2F)c2c(N)c(C(N)=O)sc2n1 [Example 242] | – | 0.1 to 10 | 10 to 20 | 0.1 to 10
27 | CC[C@H](CO)Nc1nc(-c2cccc(O)c2F)c2c(N)c(C(N)=O)sc2n1 [Example 243] | – | 0.1 to 10 | 0.1 to 10 | 0.1 to 10
28 | NC(=O)c1sc2nc(NC3CC3)nc(-c3cccc(NCCc4ccccc4)c3)c2c1N [Example 247] | – | 0.1 to 10 | 0.1 to 10 | 0.1 to 10
29 | NC(=O)c1sc2nc(NC3CC3)nc(-c3cccc(NC(=O)Nc4ccc(Cl)c(C(F)(F)F)c4)c3)c2c1N [Example 249] | – | 0.1 to 10 | 0.1 to 10 | 0.1 to 10
30 | NC(=O)c1sc2nc(NC3CC3)nc(-c3cccc(NC(=O)Nc4ccc(F)cc4)c3)c2c1N [Example 252] | – | 0.1 to 10 | 0.1 to 10 | 0.1 to 10
31 | CC(C)(CN)CNc1nc(-c2ccc(Cl)c(Cl)c2)c2c(N)c(C(N)=O)sc2n1 [Example 253] | – | 0.1 to 10 | 0.1 to 10 | 0.1 to 10
32 | CC(C)(CN)Nc1nc(-c2ccc(Cl)c(Cl)c2)c2c(N)c(C(N)=O)sc2n1 [Example 256] | – | 0.1 to 10 | 0.1 to 10 | 0.1 to 10
33 | CC[C@H](CO)Nc1nc(-c2cccc(NC(=O)Nc3ccc(C(F)(F)F)cc3)c2)c2c(N)c(C(N)=O)sc2n1 [Example 258] | – | 0.1 to 10 | 0.1 to 10 | 0.1 to 10
34 | CC[C@@H](CO)Nc1nc(-c2cccc(NC(=O)Nc3ccc(C(F)(F)F)cc3)c2)c2c(N)c(C(N)=O)sc2n1 [Example 259] | – | 0.1 to 10 | 0.1 to 10 | 0.1 to 10
35 | C[C@@H](CO)Nc1nc(-c2cccc(NC(=O)Nc3ccc(C(F)(F)F)cc3)c2)c2c(N)c(C(N)=O)sc2n1 [Example 261] | – | 0.1 to 10 | 10 to 20 | 0.1 to 10
36 | CC(C)(CO)Nc1nc(-c2cc(O)c(Cl)c(Cl)c2)c2c(N)c(C(N)=O)sc2n1 [Example 264] | – | 0.1 to 10 | 0.1 to 10 | 0.1 to 10
37 | Cc1ccc(-c2nc(NC3CC3)nc3sc(C(N)=O)c(N)c23)cc1 [Example 265] | – | 0.1 to 10 | 20 to 30 | 20 to 30
